Measurements from article PMC6470603, “Design and Synthesis of Matrine Derivatives as Novel Anti-Pulmonary Fibrotic Agents via Repression of the TGFβ/Smad Pathway” (Molecules, 2019).

What was measured:
[1] = Cytotoxicity assay (CCK-8); conditions: human, MRC-5 cells (human fetal lung fibroblasts)
Description: Cytotoxicity of all compounds were also determined against MRC-5 cells, so as to calculate selectivity index (SI, CC50/IC50).
MRC-5 cells in passage between 21 to 26 were used for experiments.
MRC-5 cells were incubated with different concentrations of compounds for 48 h, and then 10 μL of CCK-8 solution were added to each well. The cells were incubated at 37 °C for another 3 h before determining the OD values at 492 nm. DMSO at 0.1% v/v final concentration was used to solubilize the test compounds, except for compound 3b, 3c, and 3e, where 1% v/v DMSO was used to ensure complete solubilization.

[2] = tested on: TGF-β1 induced total collagen accumulation in MRC-5 cells; experiment: Sircol collagen assay: inhibition of TGF-β1-induced total collagen accumulation; assay type: cell-based, human; conditions: for IC50: Homo sapiens, MRC5, 10 ng/mL TGF-β1, 48 h, Sircol collagen assay; for SI, selectivity index (SI = CC50/IC50): MRC-5 cells
Description: Higher SI values indicates better safety profile.
MRC-5 cells in 1 × 10^5 cells/mL density were seeded in TC treated 96-well plates and allowed to reach confluence for 48 h. The cells were then starved using MEM-NEAA containing 0.2% BSA for 24 h. After starvation, the medium was changed to MEM-NEAA supplemented with 0.2% BSA, 100 μM L-Proline, 100 μM Ascorbic acid, with or without 10 ng/mL TGF-β1 (Peprotech) in the presence of vehicle or different concentrations of compounds. After 48 h incubation, the MRC-5 cells were washed with phosphate buffered saline (PBS) and fixed in −20 °C precooled methanol for 10 min. The cells were than washed with PBS before incubation in 0.1% PSR staining solution (0.1% Sirus red in saturated water solution of picric acid) for 1 h. The staining solution was then removed and the cells were washed with 0.1% acetic acid for three times. 200 μL of 0.1 mol/L sodium hydroxide solution were added to each well and the plates were placed on a rocking platform for 1 h. The optical density (OD) values at 550 nm were determined with an Infinite 2000 spectrophotometer.

[3] = tested on: MRC-5 fibroblasts; experiment: Scratch (wound healing) assay, TGF-β1-induced fibroblast migration; assay type: cell-based, human; conditions: 1000 μM, 10 ng/mL TGF-β1, 24 h (TGF-β1 alone 85.0%)
Description: Fibroblast migration is the key event in pulmonary fibrogenesis. […] Inhibition of lung fibroblasts migration is a promising potential therapeutic target for IPF. We performed wound healing assay to investigate the inhibitory effect of 3f and matrine against fibroblast migration (Figure 7).
MRC-5 cells were seeded on 6-well plates and allowed to reach confluence for 48 h. The cell monolayer was gently scratched with a 1 mL pipette tip across the center of the well. After scratching, the cells were washed twice with medium to remove detached cells. The cells were then treated with or without 10 ng/mL TGF-β1 in the presence of vehicle or 10 μM 3f for 24 h. The gap area in wound region was quantitatively evaluated using ImageJ [30] and MRI wound healing tool plugin [31].

SMILES: COc1cccc2c1ccn2C1CC(=O)N2C[C@@H]3CCCN4CCC[C@@H]([C@H]34)[C@H]2C1 (stereo partly shown) [3c, 13-(4-methoxy-1H-indol-1-yl)-matrine]
- CC50 at 48 h [1]: 56.7 ± 3.9 µM
- IC50 [2]: 44.7 ± 3.6 µM
- SI, selectivity index (SI = CC50/IC50) [2]: 1.3

SMILES: O=C1CC(n2ccc3ccncc32)C[C@@H]2[C@H]3CCCN4CCC[C@@H](CN12)[C@@H]34 (stereo partly shown) [3n, 13-(1H-pyrrolo[2,3-c]pyridin-1-yl)-matrine]
- CC50 at 48 h [1]: 84.2 ± 2.2 µM
- IC50 [2]: 69.5 ± 8.2 µM
- SI, selectivity index (SI = CC50/IC50) [2]: 1.2

SMILES: O=C1CC(n2ccc3ccccc32)C[C@@H]2[C@H]3CCCN4CCC[C@@H](CN12)[C@@H]34 (stereo partly shown) [3a, 13-(1H-indol-1-yl)-matrine]
- CC50 at 48 h [1]: 107 ± 5.9 µM
- IC50 [2]: 28.3 ± 3.9 µM
- SI, selectivity index (SI = CC50/IC50) [2]: 3.8

SMILES: O=C1CCC[C@@H]2[C@H]3CCCN4CCC[C@@H](CN12)[C@@H]34 [Matrine]
- CC50 at 48 h [1]: 2470 ± 103 µM
- IC50 [2]: 878 ± 68 µM
- SI, selectivity index (SI = CC50/IC50) [2]: 2.8
- closure of wound area over 24 h period [3]: 56.6%

SMILES: Cc1ccc(=O)n(-c2ccccc2)c1 [Pirfenidone, reference compound]
- CC50 at 48 h [1]: 4160 ± 239 µM
- IC50 [2]: 1320 ± 98 µM
- SI, selectivity index (SI = CC50/IC50) [2]: 3.1

SMILES: COc1ccc2c(ccn2C2CC(=O)N3C[C@@H]4CCCN5CCC[C@@H]([C@H]45)[C@H]3C2)c1 (stereo partly shown) [3e, 13-(5-methoxy-1H-indol-1-yl)-matrine]
- CC50 at 48 h [1]: 128 ± 1.4 µM
- IC50 [2]: 68.1 ± 5.5 µM
- SI, selectivity index (SI = CC50/IC50) [2]: 1.9

SMILES: O=C1CC(n2ccc3cc(Br)ccc32)C[C@@H]2[C@H]3CCCN4CCC[C@@H](CN12)[C@@H]34 (stereo partly shown) [3g, 13-(5-bromo-1H-indol-1-yl)-matrine]
- CC50 at 48 h [1]: 18.2 ± 0.6 µM
- IC50 [2]: 6.5 ± 1.2 µM
- SI, selectivity index (SI = CC50/IC50) [2]: 2.8

SMILES: O=C1CC(n2ccc3cnccc32)CC2C3CCCN4CCCC(CN12)C34 (stereo not shown) [3j, 13-(1H-pyrrolo[3,2-c]pyridin-1-yl)-matrine]
- CC50 at 48 h [1]: 114 ± 5.9 µM
- IC50 [2]: 16.7 ± 3.5 µM
- SI, selectivity index (SI = CC50/IC50) [2]: 6.8

SMILES: O=C1CC(n2ccc3ccc([N+](=O)[O-])cc32)C[C@@H]2[C@H]3CCCN4CCC[C@@H](CN12)[C@@H]34 (stereo partly shown) [3m, 13-(6-nitro-1H-indol-1-yl)-matrine]
- CC50 at 48 h [1]: 53.3 ± 1.9 µM
- IC50 [2]: 19.3 ± 2.2 µM
- SI, selectivity index (SI = CC50/IC50) [2]: 2.8

SMILES: Cc1cn(C2CC(=O)N3C[C@@H]4CCCN5CCC[C@@H]([C@H]45)[C@H]3C2)c2ccccc12 (stereo partly shown) [3b, 13-(3-methyl-1H-indol-1-yl)-matrine]
- CC50 at 48 h [1]: 95.1 ± 6.5 µM
- IC50 [2]: 39 ± 0.6 µM
- SI, selectivity index (SI = CC50/IC50) [2]: 2.4

SMILES: CNC1CC(=O)N2CC3CCCN4CCCC(C34)C2C1 (stereo not shown) [2a, 13-methylamino-matrine]
- CC50 at 48 h [1]: 609 ± 29.8 µM
- IC50 [2]: 65.3 ± 4.2 µM
- SI, selectivity index (SI = CC50/IC50) [2]: 9.3

SMILES: O=C1CC(n2ccc3ccc(F)cc32)C[C@@H]2[C@H]3CCCN4CCC[C@@H](CN12)[C@@H]34 (stereo partly shown) [3k, 13-(6-fluoro-1H-indol-1-yl)-matrine]
- CC50 at 48 h [1]: 78.1 ± 3.4 µM
- IC50 [2]: 23.1 ± 5.3 µM
- SI, selectivity index (SI = CC50/IC50) [2]: 3.4

SMILES: N#Cc1ccc2c(ccn2C2CC(=O)N3C[C@@H]4CCCN5CCC[C@@H]([C@H]45)[C@H]3C2)c1 (stereo partly shown) [3h, 13-(5-cyano-1H-indol-1-yl)-matrine]
- CC50 at 48 h [1]: 154 ± 11 µM
- IC50 [2]: 72.1 ± 4 µM
- SI, selectivity index (SI = CC50/IC50) [2]: 2.1

SMILES: O=C1CC(n2ccc3ccc(Cl)cc32)C[C@@H]2[C@H]3CCCN4CCC[C@@H](CN12)[C@@H]34 (stereo partly shown) [3l, 13-(6-chloro-1H-indol-1-yl)-matrine]
- CC50 at 48 h [1]: 45.8 ± 1.1 µM
- IC50 [2]: 27 ± 1.4 µM
- SI, selectivity index (SI = CC50/IC50) [2]: 1.7

SMILES: O=C1CC(n2ccc3c([N+](=O)[O-])cccc32)C[C@@H]2[C@H]3CCCN4CCC[C@@H](CN12)[C@@H]34 (stereo partly shown) [3d, 13-(4-nitro-1H-indol-1-yl)-matrine]
- CC50 at 48 h [1]: 32.8 ± 2.7 µM
- IC50 [2]: 4.3 ± 0.4 µM
- SI, selectivity index (SI = CC50/IC50) [2]: 7.6

SMILES: CN(C)C1CC(=O)N2CC3CCCN4CCCC(C34)C2C1 (stereo not shown) [2b, 13-dimethylamino-matrine]
- CC50 at 48 h [1]: 624 ± 13.2 µM
- IC50 [2]: 92.1 ± 1.9 µM
- SI, selectivity index (SI = CC50/IC50) [2]: 6.8

SMILES: O=C1CC(N2CCOCC2)C[C@@H]2[C@H]3CCCN4CCC[C@@H](CN12)[C@@H]34 (stereo partly shown) [2d, 13-morpholinocyclohexane-matrine]
- CC50 at 48 h [1]: 507 ± 25.3 µM
- IC50 [2]: 138 ± 9.8 µM
- SI, selectivity index (SI = CC50/IC50) [2]: 3.7

SMILES: O=C1CC(n2ccc3cc([N+](=O)[O-])ccc32)C[C@@H]2[C@H]3CCCN4CCC[C@@H](CN12)[C@@H]34 (stereo partly shown) [3i, 13-(5-nitro-1H-indol-1-yl)-matrine]
- CC50 at 48 h [1]: 65.4 ± 3.1 µM
- IC50 [2]: 14.5 ± 1 µM
- SI, selectivity index (SI = CC50/IC50) [2]: 4.5

SMILES: O=C1CC(N2CCCC2)C[C@@H]2[C@H]3CCCN4CCC[C@@H](CN12)[C@@H]34 (stereo partly shown) [2c, 13-(pyrrolidine-1-yl)-matrine]
- CC50 at 48 h [1]: 676 ± 49.1 µM
- IC50 [2]: 256 ± 22.1 µM
- SI, selectivity index (SI = CC50/IC50) [2]: 2.6
